Experimental data taken from PMC6154583, “Optimized 4,5-Diarylimidazoles as Potent/Selective Inhibitors of Protein Kinase CK1δ and Their Structural Relation to p38α MAPK” (Molecules : A Journal of Synthetic Chemistry and Natural …, 2017).

Legend:
Test in all cases: ProQinase 33PanQinase selectivity profiling
Format in all cases: biochemical
[1] = biological target: T1, ACV-R1B (Homo sapiens, UniProt P36896); conditions: 100 nM, relative to control, read-out: Residual activity (%)
T1 construct: purchased ProQinase GmbH (Freiburg, Germany)
T1 sequence (P36896 24-505): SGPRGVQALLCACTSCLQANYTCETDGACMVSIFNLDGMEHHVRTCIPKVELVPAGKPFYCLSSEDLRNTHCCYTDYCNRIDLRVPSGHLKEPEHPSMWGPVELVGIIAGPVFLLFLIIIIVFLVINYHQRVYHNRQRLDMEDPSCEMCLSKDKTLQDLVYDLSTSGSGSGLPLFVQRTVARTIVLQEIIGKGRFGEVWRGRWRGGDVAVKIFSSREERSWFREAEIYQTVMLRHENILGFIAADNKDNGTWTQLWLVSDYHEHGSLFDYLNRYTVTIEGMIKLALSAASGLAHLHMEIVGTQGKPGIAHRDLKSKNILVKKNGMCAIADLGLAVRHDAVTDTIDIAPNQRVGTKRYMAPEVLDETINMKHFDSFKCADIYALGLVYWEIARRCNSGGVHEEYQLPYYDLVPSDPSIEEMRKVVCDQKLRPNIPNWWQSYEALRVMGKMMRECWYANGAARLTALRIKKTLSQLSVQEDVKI

[2] = biological target: T2, AKT1 aa106-480 (Homo sapiens, UniProt P31749); conditions: 100 nM, relative to control, read-out: Residual activity (%)
T2 construct: AKT1 aa106-480; purchased ProQinase GmbH (Freiburg, Germany)
T2 sequence (P31749 106-480): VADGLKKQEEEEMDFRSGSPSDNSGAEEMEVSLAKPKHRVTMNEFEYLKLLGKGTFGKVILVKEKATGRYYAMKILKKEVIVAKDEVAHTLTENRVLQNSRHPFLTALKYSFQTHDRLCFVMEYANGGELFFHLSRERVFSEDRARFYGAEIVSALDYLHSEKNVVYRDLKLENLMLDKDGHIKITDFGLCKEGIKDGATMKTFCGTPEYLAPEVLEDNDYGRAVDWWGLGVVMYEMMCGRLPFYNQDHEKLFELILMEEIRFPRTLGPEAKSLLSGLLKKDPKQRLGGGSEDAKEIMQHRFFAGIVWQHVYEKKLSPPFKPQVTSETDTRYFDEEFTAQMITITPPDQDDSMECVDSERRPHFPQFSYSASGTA

[3] = biological target: T3, AKT3 aa106-479 (Homo sapiens, UniProt Q9Y243); conditions: 100 nM, relative to control, read-out: Residual activity (%)
T3 construct: AKT3 aa106-479; purchased ProQinase GmbH (Freiburg, Germany)

[4] = biological target: T4, AMPK-alpha1 aa1-550 (Homo sapiens, UniProt Q13131); conditions: 100 nM, relative to control, read-out: Residual activity (%)
T4 construct: AMPK-alpha1 aa1-550; purchased ProQinase GmbH (Freiburg, Germany)

[5] = biological target: ASK1 (Homo sapiens, UniProt Q99683); conditions: 100 nM, relative to control, read-out: Residual activity (%)
[6] = biological target: Aurora-B (Homo sapiens, UniProt Q96GD4); conditions: 100 nM, relative to control, read-out: Residual activity (%)
[7] = biological target: T5, Aurora-C (Homo sapiens, UniProt Q9UQB9); conditions: 100 nM, relative to control, read-out: Residual activity (%)
T5 construct: purchased ProQinase GmbH (Freiburg, Germany)
T5 sequence (Q9UQB9 whole entry): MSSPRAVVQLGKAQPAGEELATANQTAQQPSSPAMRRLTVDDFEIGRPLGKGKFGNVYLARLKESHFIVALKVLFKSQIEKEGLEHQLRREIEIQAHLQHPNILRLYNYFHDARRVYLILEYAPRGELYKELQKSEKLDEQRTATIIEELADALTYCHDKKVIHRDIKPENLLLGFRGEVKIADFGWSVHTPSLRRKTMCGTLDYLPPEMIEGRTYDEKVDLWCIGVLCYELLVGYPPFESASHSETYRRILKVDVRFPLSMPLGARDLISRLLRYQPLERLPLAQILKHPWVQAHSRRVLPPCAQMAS

[8] = biological target: BLK (Homo sapiens, UniProt P51451); conditions: 100 nM, relative to control, read-out: Residual activity (%)
[9] = biological target: T6, BUB1B (Homo sapiens, UniProt O60566); conditions: 100 nM, relative to control, read-out: Residual activity (%)
T6 construct: purchased ProQinase GmbH
T6 sequence (O60566 whole entry): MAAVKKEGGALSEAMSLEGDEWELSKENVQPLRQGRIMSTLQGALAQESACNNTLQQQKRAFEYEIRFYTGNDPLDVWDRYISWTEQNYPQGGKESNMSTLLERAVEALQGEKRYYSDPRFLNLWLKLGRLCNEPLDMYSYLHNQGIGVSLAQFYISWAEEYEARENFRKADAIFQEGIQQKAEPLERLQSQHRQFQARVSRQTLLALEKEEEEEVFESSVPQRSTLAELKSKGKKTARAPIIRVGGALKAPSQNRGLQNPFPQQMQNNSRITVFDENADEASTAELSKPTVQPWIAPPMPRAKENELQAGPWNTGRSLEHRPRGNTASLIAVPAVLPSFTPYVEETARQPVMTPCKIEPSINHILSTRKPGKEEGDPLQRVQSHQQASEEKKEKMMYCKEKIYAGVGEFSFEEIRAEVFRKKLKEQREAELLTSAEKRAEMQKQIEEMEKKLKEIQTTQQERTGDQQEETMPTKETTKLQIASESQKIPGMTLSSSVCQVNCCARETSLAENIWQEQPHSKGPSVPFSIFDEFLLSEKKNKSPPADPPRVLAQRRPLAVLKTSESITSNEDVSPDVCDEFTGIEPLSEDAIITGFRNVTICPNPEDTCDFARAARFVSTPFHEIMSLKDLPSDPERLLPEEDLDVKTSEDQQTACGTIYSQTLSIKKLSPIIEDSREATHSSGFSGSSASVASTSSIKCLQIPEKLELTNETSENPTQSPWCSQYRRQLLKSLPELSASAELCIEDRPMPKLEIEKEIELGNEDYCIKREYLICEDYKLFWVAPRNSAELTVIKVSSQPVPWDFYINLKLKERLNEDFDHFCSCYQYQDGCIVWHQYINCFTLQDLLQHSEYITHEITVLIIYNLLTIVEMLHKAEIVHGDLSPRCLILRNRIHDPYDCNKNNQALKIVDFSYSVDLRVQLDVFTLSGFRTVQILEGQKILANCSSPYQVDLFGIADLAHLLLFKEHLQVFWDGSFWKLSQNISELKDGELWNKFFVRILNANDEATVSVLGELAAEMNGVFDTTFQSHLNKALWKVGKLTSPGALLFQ

[10] = biological target: CAMK1D (Homo sapiens, UniProt Q8IU85); conditions: 100 nM, relative to control, read-out: Residual activity (%)
[11] = biological target: CAMK2A (Homo sapiens, UniProt Q9UQM7); conditions: 100 nM, relative to control, read-out: Residual activity (%)
[12] = biological target: CAMK2D (Homo sapiens, UniProt Q13557); conditions: 100 nM, relative to control, read-out: Residual activity (%)
[13] = biological target: CDK1/CycA2 (Homo sapiens, UniProt P06493); conditions: 100 nM, relative to control, read-out: Residual activity (%)
[14] = biological target: CDK1/CycB1 (Homo sapiens, UniProt P06493); conditions: 100 nM, relative to control, read-out: Residual activity (%)
[15] = biological target: CDK2/CycE1 (Homo sapiens, UniProt P24941); conditions: 100 nM, relative to control, read-out: Residual activity (%)
[16] = biological target: CDK3/CycC (Homo sapiens, UniProt Q00526); conditions: 100 nM, relative to control, read-out: Residual activity (%)
[17] = biological target: CDK3/CycE1 (Homo sapiens, UniProt Q00526); conditions: 100 nM, relative to control, read-out: Residual activity (%)
[18] = biological target: CDK6/CycD3 (Homo sapiens, UniProt Q00534); conditions: 100 nM, relative to control, read-out: Residual activity (%)
[19] = biological target: CDK9/CycK (Homo sapiens, UniProt P50750); conditions: 100 nM, relative to control, read-out: Residual activity (%)
[20] = biological target: CK1-gamma2 (Homo sapiens, UniProt P78368); conditions: 100 nM, relative to control
Sequence of CK1-gamma2 (P78368 whole entry): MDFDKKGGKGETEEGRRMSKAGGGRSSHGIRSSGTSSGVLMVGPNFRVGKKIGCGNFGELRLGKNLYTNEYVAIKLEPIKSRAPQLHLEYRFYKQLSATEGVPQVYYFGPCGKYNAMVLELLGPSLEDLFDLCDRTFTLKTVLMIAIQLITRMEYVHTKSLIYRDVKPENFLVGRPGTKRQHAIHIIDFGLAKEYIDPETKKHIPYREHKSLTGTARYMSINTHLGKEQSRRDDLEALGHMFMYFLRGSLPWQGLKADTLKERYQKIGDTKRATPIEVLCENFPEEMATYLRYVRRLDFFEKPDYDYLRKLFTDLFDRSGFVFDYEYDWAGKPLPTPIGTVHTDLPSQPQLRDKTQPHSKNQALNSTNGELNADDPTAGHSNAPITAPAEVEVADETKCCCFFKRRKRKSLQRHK

[21] = biological target: CLK1 (Homo sapiens, UniProt P49759); conditions: 100 nM, relative to control, read-out: Residual activity (%)
[22] = biological target: T7, CSF1-R (Homo sapiens, UniProt P07333); conditions: 100 nM, relative to control, read-out: Residual activity (%)
T7 construct: purchased ProQinase GmbH

[23] = biological target: DAPK1 (Homo sapiens, UniProt P53355); conditions: 100 nM, relative to control, read-out: Residual activity (%)
Sequence of DAPK1 (P53355 whole entry): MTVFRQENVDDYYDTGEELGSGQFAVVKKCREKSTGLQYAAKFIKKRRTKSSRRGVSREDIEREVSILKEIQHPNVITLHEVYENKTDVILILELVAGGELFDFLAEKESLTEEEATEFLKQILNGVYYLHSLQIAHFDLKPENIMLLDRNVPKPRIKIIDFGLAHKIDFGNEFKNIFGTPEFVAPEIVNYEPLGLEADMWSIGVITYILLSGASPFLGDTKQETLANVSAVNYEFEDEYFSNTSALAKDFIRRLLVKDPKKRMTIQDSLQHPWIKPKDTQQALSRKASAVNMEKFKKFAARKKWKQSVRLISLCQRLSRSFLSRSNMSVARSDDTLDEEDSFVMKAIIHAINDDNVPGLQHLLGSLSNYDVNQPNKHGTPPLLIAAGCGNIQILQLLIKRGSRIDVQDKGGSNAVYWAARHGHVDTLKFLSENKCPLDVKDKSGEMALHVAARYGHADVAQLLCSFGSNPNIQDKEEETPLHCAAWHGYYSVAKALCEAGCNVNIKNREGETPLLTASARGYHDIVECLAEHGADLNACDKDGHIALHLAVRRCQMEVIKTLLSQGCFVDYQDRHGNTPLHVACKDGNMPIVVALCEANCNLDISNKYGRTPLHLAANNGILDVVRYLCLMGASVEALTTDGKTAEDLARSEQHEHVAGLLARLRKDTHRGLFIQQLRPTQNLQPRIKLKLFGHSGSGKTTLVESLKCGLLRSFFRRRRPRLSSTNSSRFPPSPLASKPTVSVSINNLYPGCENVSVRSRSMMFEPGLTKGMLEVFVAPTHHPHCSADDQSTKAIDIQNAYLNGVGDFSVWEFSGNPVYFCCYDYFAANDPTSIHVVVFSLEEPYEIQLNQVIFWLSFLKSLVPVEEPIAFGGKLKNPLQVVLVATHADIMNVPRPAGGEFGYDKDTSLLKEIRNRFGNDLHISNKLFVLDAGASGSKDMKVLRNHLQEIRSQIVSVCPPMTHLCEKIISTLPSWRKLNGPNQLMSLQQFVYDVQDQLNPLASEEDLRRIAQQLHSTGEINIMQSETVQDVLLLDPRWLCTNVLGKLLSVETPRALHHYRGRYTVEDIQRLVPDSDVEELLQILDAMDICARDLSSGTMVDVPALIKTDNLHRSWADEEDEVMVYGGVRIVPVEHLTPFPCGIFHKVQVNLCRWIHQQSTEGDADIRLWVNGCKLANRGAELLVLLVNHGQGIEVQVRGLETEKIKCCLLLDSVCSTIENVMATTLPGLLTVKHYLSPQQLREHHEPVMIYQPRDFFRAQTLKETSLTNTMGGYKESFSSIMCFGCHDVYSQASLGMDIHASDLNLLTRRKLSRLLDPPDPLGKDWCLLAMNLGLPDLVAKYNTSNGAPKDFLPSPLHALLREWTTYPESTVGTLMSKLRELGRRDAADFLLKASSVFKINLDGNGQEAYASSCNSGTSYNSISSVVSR

[24] = biological target: DAPK3 (Homo sapiens, UniProt O43293); conditions: 100 nM, relative to control, read-out: Residual activity (%)
[25] = biological target: DYRK2 (Homo sapiens, UniProt Q92630); conditions: 100 nM, relative to control, read-out: Residual activity (%)
[26] = biological target: T8, EIF2AK2 (Homo sapiens, UniProt P19525); conditions: 100 nM, relative to control, read-out: Residual activity (%)
T8 construct: purchased ProQinase GmbH

[27] = biological target: T9, EPHA4 (Homo sapiens, UniProt P54764); conditions: 100 nM, relative to control, read-out: Residual activity (%)
T9 construct: purchased ProQinase GmbH
T9 sequence (P54764 20-986): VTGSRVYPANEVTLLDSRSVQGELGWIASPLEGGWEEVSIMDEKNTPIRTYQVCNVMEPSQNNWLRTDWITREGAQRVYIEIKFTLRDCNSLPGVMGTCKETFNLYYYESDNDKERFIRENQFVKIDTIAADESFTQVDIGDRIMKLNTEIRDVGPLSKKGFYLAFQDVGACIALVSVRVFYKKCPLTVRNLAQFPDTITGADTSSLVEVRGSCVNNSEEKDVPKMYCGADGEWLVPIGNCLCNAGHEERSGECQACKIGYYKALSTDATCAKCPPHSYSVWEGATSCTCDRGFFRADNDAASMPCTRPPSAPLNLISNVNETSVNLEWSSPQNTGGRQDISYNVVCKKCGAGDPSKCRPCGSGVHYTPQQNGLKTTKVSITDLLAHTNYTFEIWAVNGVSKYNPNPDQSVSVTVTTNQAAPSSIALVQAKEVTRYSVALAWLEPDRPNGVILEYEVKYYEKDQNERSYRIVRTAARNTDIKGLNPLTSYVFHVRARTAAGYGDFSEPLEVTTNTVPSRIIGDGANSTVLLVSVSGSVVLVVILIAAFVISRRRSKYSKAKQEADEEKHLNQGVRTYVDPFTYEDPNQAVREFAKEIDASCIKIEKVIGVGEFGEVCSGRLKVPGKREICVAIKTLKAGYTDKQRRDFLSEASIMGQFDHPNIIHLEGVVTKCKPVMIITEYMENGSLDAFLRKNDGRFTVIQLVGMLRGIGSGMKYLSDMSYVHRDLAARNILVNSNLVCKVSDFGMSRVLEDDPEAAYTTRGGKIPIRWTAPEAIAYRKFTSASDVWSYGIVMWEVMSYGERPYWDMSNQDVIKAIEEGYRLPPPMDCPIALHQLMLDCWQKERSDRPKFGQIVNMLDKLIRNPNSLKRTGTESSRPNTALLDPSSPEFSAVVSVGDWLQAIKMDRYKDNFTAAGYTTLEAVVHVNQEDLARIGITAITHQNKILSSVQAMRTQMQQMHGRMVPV

[28] = biological target: p38α MAPK (Homo sapiens, UniProt Q16539); conditions: 100 nM, relative to control, read-out: residual activity

Work on `COc1ccc(OC)c(CCC(=O)Nc2cc(-c3nc(SC)[nH]c3-c3ccc(F)cc3)ccn2)c1` [11b, 3-(2,5-Dimethoxyphenyl)-N-(4-(5-(4-fluorophenyl)-2-(methylthio)-1H-imidazol-4-yl)-pyridin-2-yl)-propanamide] yielded a remaining activity at 0.1 µM [1] of 101%, a remaining activity at 0.1 µM [2] of 90% and a remaining activity at 0.1 µM [3] of 83%. It also gave a remaining activity at 0.1 µM [4] of 96%, a remaining activity at 0.1 µM [5] of 93% and a remaining activity at 0.1 µM [6] of 92%. It also gave a remaining activity at 0.1 µM [7] of 93%, a remaining activity at 0.1 µM [8] of 77% and a remaining activity at 0.1 µM [9] of 102%. It also gave a remaining activity at 0.1 µM [10] of 78%, a remaining activity at 0.1 µM [11] of 95% and a remaining activity at 0.1 µM [12] of 96%. For the same compound, the remaining activity at 0.1 µM [13] was 91%, the remaining activity at 0.1 µM [14] was 95% and the remaining activity at 0.1 µM [15] was 99%. The remaining activity at 0.1 µM [16] was 95%, the remaining activity at 0.1 µM [17] was 98% and the remaining activity at 0.1 µM [18] was 97%. The remaining activity at 0.1 µM [19] was 103%, the “Residual activity (%)” value [20] was “unaffected” and the remaining activity at 0.1 µM ([20]; read-out: Residual activity (%)) was 91%. The remaining activity at 0.1 µM [21] was 105%, the remaining activity at 0.1 µM [22] was 104% and the remaining activity at 0.1 µM [23] was 96%. The remaining activity at 0.1 µM [24] was 85%, the remaining activity at 0.1 µM [25] was 99% and the remaining activity at 0.1 µM [26] was 91%. It also gave a remaining activity at 0.1 µM [27] of 96% and a remaining activity at 0.1 µM [28] of 22%.
